This note sets out measurements from US9023861B2, “Anticancer combination of artemisinin-based drugs and other chemotherapeutic agents” (Sigma-Tau Industrie Farmaceutiche Riunite, S.p.A., priority 2009, dated 2015).

By IC50 is commonly meant the concentration that inhibits the measured activity by half.

The test system of one series is MCF-7/Dx MDR. The series can be described thus: Anti-proliferative activity, sulphorodamine B test. In kind it is cell-based. Particulars: for IC50: MCF7/DX, MCF-7/Dx MDR, 24 h exposure, 48 h recovery; for resistance index: MCF-7/Dx MDR versus MCF-7. How it is done:
(§1) The biological activity of DHA and ART on tumour cells survival was evaluated. The latter were seeded in 96-well tissue culture plates at approximately 10% confluence and were allowed to attach and recover for at least 24 h before being exposed to DHA or ART for 24 h at 37° C. They were then washed to remove DHA and ART and left to recover for 48 hours in medium culture. The medium culture was then removed and cells were washed three times with PBS. The plates were then incubated for on ice for 1 hour with 200 μl of PBS and 50 μl of cold 80% TCA before being washed with distilled water, dried on paper and finally at 40° C. for 5 minutes. 200 μl of 0.4% sulphorodamine B in 1% acetic acid were added and the incubation was prolonged for 30 minutes. Sulphorodamine B was removed, and the plates were washed 3 times with 1% acetic acid. They were finally dried on paper followed by standing at 40° C. for 5 minutes. Then 200 μl Tris 10 mM were added, the plates were kept under stirring for 20 minutes. Cell survival was determined as optical density at 540 nm by means of a Multiskan spectrofluorimeter. The amount of cells killed was expressed as the percentage decrease in sulphorodamine B binding compared to control cultures. IC50 were generated with their standard deviations by the ALLFIT program.

A further series deals with MCF-7. The series can be described thus: Anti-proliferative activity, sulphorodamine B test. In kind it is cell-based. The following applies: Homo sapiens, MCF7, 24 h exposure, 48 h recovery. How it is done: as §1
Another series relates to LoVo. Put plainly: Anti-proliferative activity, sulphorodamine B test. Particulars: Homo sapiens, 24 h exposure, 48 h recovery. In kind it is cell-based. The procedure: as §1
Another series has as its system LoVo/Dx MDR. Put plainly: Anti-proliferative activity, sulphorodamine B test. In kind it is cell-based. Particulars: LoVo/Dx MDR; 24 h exposure, 48 h recovery. How it is done:
as §1

The test system of the next series is HCT116. The series can be described thus: Anti-proliferative activity, sulphorodamine B test. Particulars: Homo sapiens, HCT-116, 24 h exposure, 48 h recovery. Type of series: cell-based. How it is done:
as §1

Series [1] concerns HCT116 colon cancer cells. The series can be described thus: In vivo antitumour activity, s.c. xenograft in CD1 nude mice. Particulars: DHA 200 mg/kg p.o., AZD2281 100 mg/kg i.p., qdx5/wx4w. The procedure: HCT116 colon cancer cells were inoculated subcutaneously (s.c.) in the right flank of CD1 nude mice (5×10^6/0.1 ml of Medium 199). Treatments started three days after tumour injection. Mice were subdivided (8 mice/group) in the following experimental groups:
(§2) a) Vehicle (DMSO 10%) 10 ml/kg, i.p.;
b) DHA 200 mg/kg, p.o. qdx5/wx4w;
d) AZD2281+DHA (doses and schedules as above);
e) ABT-888 50 mg/kg, i.p. qdx5/wx4w;
f) ABT-888+DHA (doses and schedules as above).
DHA was administered immediately before AZD2281 or ABT-888.
The antitumour activity was evaluated according to the protocol reported hereinabove in example 3 when tumours reached a volume of about 500 mm^3.
Body weight recording was carried out to evaluate body weight loss according to the protocol reported hereinabove in example 3.

In a further series the test system is NCI-H460. Put plainly: Anti-proliferative activity, sulphorodamine B test. In kind it is cell-based. Particulars: Homo sapiens, 24 h exposure, 48 h recovery. How it is done: as §1
For another series, the system named is HT29. Put plainly: Anti-proliferative activity, sulphorodamine B test. Type of series: cell-based. Particulars: Homo sapiens, HT-29, 24 h exposure, 48 h recovery. The procedure: as §1
In another series the test system is A2780. The series can be described thus: Anti-proliferative activity, sulphorodamine B test. Type of series: cell-based. The following applies: Homo sapiens, 24 h exposure, 48 h recovery. How it is done:
as §1

The next series concerns SW620. Put plainly: Anti-proliferative activity, sulphorodamine B test. In kind it is cell-based. Particulars: Homo sapiens, SW-620, 24 h exposure, 48 h recovery. How it is done: as §1
Series [2] deals with NCI-H460 non-small cell lung carcinoma. Put plainly: In vivo antitumor activity, s.c. xenograft in CD1 nude mice. The following applies: DHA 200 mg/kg p.o., AZD2281 100 mg/kg i.p., qdx5/wx3w. The procedure: NCI-H460 non-small cell lung carcinoma cells were inoculated subcutaneously (s.c.) in the right flank of CD1 nude mice (3×10^6/0.1 ml of Medium 199). Treatments started three days after tumour injection. Mice were subdivided (10 mice/group) in the following experimental groups:
as §2
b) DHA 200 mg/kg, p.o. qdx5/wx3w;
d) AZD2281+DHA (doses and schedules as above).
For the latter experiment DHA was administered immediately before AZD2281.
To evaluate the antitumour activity, tumour diameters were measured with a Vernier calliper according to the formula TV=d^2×D/2 where d and D are the shortest and longest diameters, respectively.
When tumours reached a volume of about 1500 mm^3, mice were sacrificed by cervical dislocation. The efficacy of the drug was assessed as the tumour volume inhibition according to the formula reported underneath: […]
Body weight recording was carried out to evaluate body weight loss as calculated in the equation underneath: […]
Wherein BW day x corresponds to the mean weight at day x of the experiment meanwhile BW day 1 corresponds to the mean weight at the first day of the experiment.

Molecules are shown by their SMILES.

As to `C[C@@H]1CC[C@H]2[C@@H](C)C(=O)O[C@@H]3O[C@@]4(C)CC[C@@H]1[C@]32OO4` [ART, artemisinin], the IC50 was 187 ± 70 µM in the series on MCF-7/Dx MDR; 45.8 ± 11.5 µM with MCF-7; > 200 µM in the series on LoVo; > 200 µM with LoVo/Dx MDR; 257 ± 28.8 µM in the series with HCT116. Moreover, the resistance index in the series on MCF-7/Dx MDR is reported as 4.

As to `C[C@H]1[C@@H](O)O[C@@H]2O[C@@]3(C)CC[C@H]4[C@H](C)CC[C@@H]1[C@@]24OO3` [DHA, dihydroartemisinin], the “tolerability (body weight loss during the treatment)” value in [1] (HCT116 xenograft mice, ABT-888 50 mg/kg) is on record as “well-tolerated”; in series [2] (NCI-H460 xenograft mice), “well-tolerated”. Besides, the BWL % came out at 1% in series [1] (body weight loss, HCT116 xenograft, CD1 nude mice, ABT-888 50 mg/kg i.p.) and 0% in [2] (body weight loss, NCI-H460 xenograft, CD1 nude mice). Besides, the TVI % came out at 0% in [1] (tumour volume inhibition, HCT116 xenograft, CD1 nude mice, ABT-888 50 mg/kg i.p.) and 3% in [2] (tumour volume inhibition, NCI-H460 xenograft, CD1 nude mice). Also, the “TV ± SE” value in [1] (tumour volume, HCT116 xenograft, CD1 nude mice, ABT-888 50 mg/kg i.p., evaluated at about 500 mm^3) was 447 ± 39; in series [2] (tumour volume, NCI-H460 xenograft, CD1 nude mice, sacrifice at about 1500 mm^3), 1575 ± 191. The IC50 was 8.16 ± 0.5 µM in the series on NCI-H460; 0.97 ± 0.3 µM in the series on MCF-7/Dx MDR; 1.05 ± 0.08 µM with MCF-7; 2.57 ± 0.8 µM with LoVo; 5.8 ± 0.5 µM in the series on HT29; 0.23 ± 0.02 µM in the series with A2780. Besides, the IC50 in the series with SW620 amounted to 1.8 ± 0.1 µM; with LoVo/Dx MDR, 1.18 ± 0.3 µM; with HCT116 it was 0.37 ± 0.08 µM. This compound gave a resistance index with MCF-7/Dx MDR of 0.92.
